Data published in patent US6673827B1, “Methods of treating fungal infections with inhibitors of NAD synthetase enzyme” (priority 1999, dated 2004).
Converted amounts (≈) assume the structure as drawn. “And” between values parts separate entries of the source, which are not always exact repeats. Equal values may be shown once. Read-outs that look alike come from different tables or passages of the source.

Legend:
Format in all cases: cell-based
[1] = tested on: Cryptococcus neoformans DLB-1027594CNC; assay: In vitro study of inhibition of growth and lethality against yeast (MIC/MLC susceptibility test), isolate G; conditions: for Minimum Lethal Concentration (MLC), G: Table 4B summary, isolate G; for MIC: DLB1027594CNC
[2] = tested on: Candida tropicalis ATCC 750; assay: In vitro study of inhibition of growth and lethality against yeast (MIC/MLC susceptibility test), isolate A; conditions: for Minimum Lethal Concentration (MLC), A: Table 4B summary, isolate A
[3] = tested on: Candida tropicalis ATCC 28707; assay: In vitro study of inhibition of growth and lethality against yeast (MIC/MLC susceptibility test), isolate B; conditions: for Minimum Lethal Concentration (MLC), B: Table 4B summary, isolate B
[4] = tested on: Cryptococcus neoformans SLP-BC0012854; assay: In vitro study of inhibition of growth and lethality against yeast (MIC/MLC susceptibility test), isolate H; conditions: for Minimum Lethal Concentration (MLC), H: Table 4B summary, isolate H
[5] = tested on: Torulopsis glabrata ERH-BC9938274; assay: In vitro study of inhibition of growth and lethality against yeast (MIC/MLC susceptibility test), isolate F; conditions: for Minimum Lethal Concentration (MLC), F: Table 4B summary, isolate F; for MIC: Nakaseomyces glabratus; for Minimum Inhibitory Conc. (MIC), 24 hr.: read at 24 hr
[6] = tested on: Candida albicans KJP-000531594; assay: In vitro study of inhibition of growth and lethality against yeast (MIC/MLC susceptibility test), isolate C; conditions: for Minimum Lethal Concentration (MLC), C: Table 4B summary, isolate C; for Minimum Inhibitory Conc. (MIC), 48 hr. / MIC / Minimum Inhibitory Conc. (MIC), 24 hr.: Candida albicans
[7] = tested on: Torulopsis glabrata JHC-BC9951635; assay: In vitro study of inhibition of growth and lethality against yeast (MIC/MLC susceptibility test), isolate E; conditions: for Minimum Lethal Concentration (MLC), E: Table 4B summary, isolate E; for MIC: Nakaseomyces glabratus; for MIC / Minimum Inhibitory Conc. (MIC), 48 hr. / Minimum Inhibitory Conc. (MIC), 24 hr.: isolate assigned by line order
[8] = tested on: Candida albicans LH-000664533; assay: In vitro study of inhibition of growth and lethality against yeast (MIC/MLC susceptibility test), isolate D; conditions: for Minimum Lethal Concentration (MLC), D: Table 4B summary, isolate D
[9] = Cryptococcus neoformans, 1st pair of lines, read at 72 hr, isolate assigned by line order
[10] = 1st pair of lines, read at 48 hr, isolate assigned by line order
[11] = Torulopsis glabrata, 2nd pair of lines, read at 48 hr
[12] = Torulopsis glabrata, 1st pair of lines, isolate assigned by line order
[13] = 1st pair of lines, read at 24 hr, isolate not given, assigned by line order and MLC of Table 4B
[14] = Torulopsis glabrata, 2nd pair of lines, read at 24 hr

For `COC(=O)c1cc2cc(OCc3ccccc3)ccc2n1CCCCCCOC(=O)c1cccnc1` [Compound 0951], the “Minimum Lethal Concentration (MLC), G” value [1] was 4 µg/mL, the “Minimum Lethal Concentration (MLC), A” value [2] was 1 µg/mL and the “Minimum Lethal Concentration (MLC), B” value [3] was 1 µg/mL. The “Minimum Lethal Concentration (MLC), H” value [4] was 4 µg/mL, the “Minimum Lethal Concentration (MLC), F” value [5] was 2 µg/mL and the “Minimum Lethal Concentration (MLC), C” value [6] was 1 µg/mL. For the same compound, the “Minimum Lethal Concentration (MLC), E” value [7] was 2 µg/mL and the “Minimum Lethal Concentration (MLC), D” value [8] was 2 µg/mL.

With `OC(Cn1cncn1)(Cn1cncn1)c1ccc(F)cc1F` [Fluconazole] the “Minimum Inhibitory Conc. (MIC), 72 hr.” value [1, 9] was 64 µg/mL, the MIC ([1]; Cryptococcus neoformans, 48 h, Cryptococcus neoformans, 1st pair of lines, read at 48 hr, isolate assigned by line order, read-out: Minimum Inhibitory Conc. (MIC), 48 hr.) was > 64 µg/mL and the MIC ([1]; Cryptococcus neoformans, 72 h, Cryptococcus neoformans, 1st pair of lines, read at 72 hr, isolate assigned by line order, read-out: Minimum Inhibitory Conc. (MIC), 72 hr.) was > 64 µg/mL. For the same compound, the MIC ([2]; Candida tropicalis, ATCC750, 24 h, Candida tropicalis, 2nd pair of lines, read at 24 hr, isolate assigned by line order, read-out: Minimum Inhibitory Conc. (MIC), 24 hr.) was 1 µg/mL (≈ 3.27 µM), the MIC ([2]; Candida tropicalis, ATCC750, 48 h, Candida tropicalis, 2nd pair of lines, read at 48 hr, isolate assigned by line order, read-out: Minimum Inhibitory Conc. (MIC), 48 hr.) was 4 µg/mL (≈ 13.1 µM) and the MIC ([4]; Cryptococcus neoformans, SLPBC0012854, 48 h, Cryptococcus neoformans, 2nd pair of lines, read at 48 hr, isolate assigned by line order, read-out: Minimum Inhibitory Conc. (MIC), 48 hr.) was 4 µg/mL (≈ 13.1 µM). The MIC ([4]; Cryptococcus neoformans, SLPBC0012854, 72 h, Cryptococcus neoformans, 2nd pair of lines, read at 72 hr, isolate assigned by line order, read-out: Minimum Inhibitory Conc. (MIC), 72 hr.) was 4 µg/mL (≈ 13.1 µM), the “Minimum Inhibitory Conc. (MIC), 48 hr.” value [6, 10] was 2 µg/mL and the MIC ([6]; KJP000531594, 24 h, 1st pair of lines, read at 24 hr, isolate not given, assigned by line order and MLC of Table 4B, read-out: Minimum Inhibitory Conc. (MIC), 24 hr.) was 0.5 µg/mL (≈ 1.63 µM). For the same compound, the MIC ([6]; KJP000531594, 48 h, 1st pair of lines, read at 48 hr, isolate assigned by line order, read-out: Minimum Inhibitory Conc. (MIC), 48 hr.) was 1 µg/mL (≈ 3.27 µM), the MIC ([7]; JHCBC9951635, 24 h, Torulopsis glabrata, 2nd pair of lines, read at 24 hr, read-out: Minimum Inhibitory Conc. (MIC), 24 hr.) was 2 µg/mL (≈ 6.53 µM) and the MIC ([7]; JHCBC9951635, 48 h, Torulopsis glabrata, 2nd pair of lines, read at 48 hr, read-out: Minimum Inhibitory Conc. (MIC), 48 hr.) was 8 µg/mL (≈ 26.1 µM). For the same compound, the “Minimum Inhibitory Conc. (MIC), 48 hr.” value [7, 11] was 4 µg/mL.

`COC(=O)c1cc2cc(OCc3ccccc3)ccc2n1CCCCCCCCC[n+]1ccccc1` [Compound 230] gave an MIC ([1]; Cryptococcus neoformans, 48 h, read-out: Minimum Inhibitory Conc. (MIC), 48 hr.) of 1 µg/mL, an MIC ([1]; Cryptococcus neoformans, 72 h, read-out: Minimum Inhibitory Conc. (MIC), 72 hr.) of 1 µg/mL and an MIC ([2]; Candida tropicalis, ATCC750, 24 h, read-out: Minimum Inhibitory Conc. (MIC), 24 hr.) of 1 µg/mL. It also gave an MIC ([2]; Candida tropicalis, ATCC750, 48 h, read-out: Minimum Inhibitory Conc. (MIC), 48 hr.) of 1 µg/mL, an MIC ([3]; Candida tropicalis, ATCC28707, 24 h, read-out: Minimum Inhibitory Conc. (MIC), 24 hr.) of 0.5 µg/mL and an MIC ([3]; Candida tropicalis, ATCC28707, 48 h, read-out: Minimum Inhibitory Conc. (MIC), 48 hr.) of 0.5 µg/mL. For the same compound, the MIC ([4]; Cryptococcus neoformans, SLPBC0012854, 48 h, read-out: Minimum Inhibitory Conc. (MIC), 48 hr.) was 1 µg/mL, the MIC ([4]; Cryptococcus neoformans, SLPBC0012854, 72 h, read-out: Minimum Inhibitory Conc. (MIC), 72 hr.) was 1 µg/mL and the MIC ([5]; ERHBC9938274, 24 h, read-out: Minimum Inhibitory Conc. (MIC), 24 hr., Torulopsis glabrata, 1st pair of lines, read at 24 hr, isolate assigned by line order) was 1 µg/mL. For the same compound, the MIC ([5]; ERHBC9938274, 48 h, read-out: Minimum Inhibitory Conc. (MIC), 48 hr., Torulopsis glabrata, 1st pair of lines, read at 48 hr, isolate assigned by line order) was 2 µg/mL, the “Minimum Inhibitory Conc. (MIC), 24 hr.” value [5, 12] was 2 µg/mL and the “Minimum Inhibitory Conc. (MIC), 24 hr.” value [6, 13] was 0.5 µg/mL. The MIC ([6]; KJP000531594, 24 h, read-out: Minimum Inhibitory Conc. (MIC), 24 hr., Candida albicans, 1st pair of lines, read at 24 hr, isolate not given, assigned by line order and MLC of Table 4B) was 1 µg/mL, the MIC ([6]; KJP000531594, 48 h, read-out: Minimum Inhibitory Conc. (MIC), 48 hr., Candida albicans, 1st pair of lines, read at 48 hr, isolate assigned by line order) was 1 µg/mL and the MIC ([7]; JHCBC9951635, 24 h, read-out: Minimum Inhibitory Conc. (MIC), 24 hr., Torulopsis glabrata, 2nd pair of lines, read at 24 hr) was 1 µg/mL. For the same compound, the MIC ([7]; JHCBC9951635, 48 h, read-out: Minimum Inhibitory Conc. (MIC), 48 hr., Torulopsis glabrata, 2nd pair of lines, read at 48 hr) was 2 µg/mL, the “Minimum Inhibitory Conc. (MIC), 24 hr.” value [7, 14] was 2 µg/mL and the MIC ([8]; Candida albicans, LH000664533, 24 h, read-out: Minimum Inhibitory Conc. (MIC), 24 hr.) was 1 µg/mL. The MIC ([8]; Candida albicans, LH000664533, 48 h, read-out: Minimum Inhibitory Conc. (MIC), 48 hr.) was 1 µg/mL.

With `C[C@@H]1[C@H](O)[C@@H](C)/C=C/C=C/C=C/C=C/C=C/C=C/C=C/[C@H](O[C@@H]2O[C@H](C)[C@@H](O)[C@H](N)[C@@H]2O)C[C@@H]2O[C@](O)(C[C@@H](O)C[C@@H](O)[C@H](O)CC[C@@H](O)C[C@@H](O)CC(=O)O[C@H]1C)C[C@H](O)[C@H]2C(=O)O` [Amphotericin B] the “Minimum Inhibitory Conc. (MIC), 48 hr.” value ([1]; Cryptococcus neoformans, 1st pair of lines, read at 48 hr, isolate assigned by line order) was 0.25 µg/mL, the “Minimum Inhibitory Conc. (MIC), 72 hr.” value [1, 9] was 0.25 µg/mL and the “Minimum Inhibitory Conc. (MIC), 24 hr.” value ([2]; Candida tropicalis, 2nd pair of lines, read at 24 hr, isolate assigned by line order) was 0.5 µg/mL. For the same compound, the “Minimum Inhibitory Conc. (MIC), 48 hr.” value ([2]; Candida tropicalis, 2nd pair of lines, read at 48 hr, isolate assigned by line order) was 0.5 µg/mL and 1 µg/mL, the “Minimum Inhibitory Conc. (MIC), 24 hr.” value ([3]; Candida tropicalis, 1st pair of lines, read at 24 hr, isolate assigned by line order) was 2 µg/mL and the “Minimum Inhibitory Conc. (MIC), 48 hr.” value ([3]; Candida tropicalis, 1st pair of lines, read at 48 hr, isolate assigned by line order) was 4 µg/mL. The “Minimum Inhibitory Conc. (MIC), 48 hr.” value ([4]; Cryptococcus neoformans, 2nd pair of lines, read at 48 hr, isolate assigned by line order) was 0.5 µg/mL and 0.25 µg/mL, the “Minimum Inhibitory Conc. (MIC), 24 hr.” value [5, 12] was 0.5 µg/mL and the “Minimum Inhibitory Conc. (MIC), 48 hr.” value ([5]; Torulopsis glabrata, 1st pair of lines, read at 48 hr, isolate assigned by line order) was 1 µg/mL. The “Minimum Inhibitory Conc. (MIC), 24 hr.” value [6, 13] was 0.5 µg/mL, the “Minimum Inhibitory Conc. (MIC), 48 hr.” value [6, 10] was 1 µg/mL and the “Minimum Inhibitory Conc. (MIC), 24 hr.” value [7, 14] was 0.5 µg/mL. The “Minimum Inhibitory Conc. (MIC), 48 hr.” value [7, 11] was 1 µg/mL and 0.5 µg/mL, the “Minimum Inhibitory Conc. (MIC), 24 hr.” value ([8]; Candida albicans, 2nd pair of lines, read at 24 hr, isolate assigned by line order) was 0.5 µg/mL and the “Minimum Inhibitory Conc. (MIC), 48 hr.” value ([8]; Candida albicans, 2nd pair of lines, read at 48 hr, isolate assigned by line order) was 0.5 µg/mL.

`Fc1cc(F)c2[nH]c(CCCC[n+]3cccc4ccccc43)cc2c1` [Compound 0409] was tested, and the “Minimum Lethal Concentration (MLC), G” value [1] was 2 µg/mL, the “Minimum Lethal Concentration (MLC), A” value [2] was 1 µg/mL and the “Minimum Lethal Concentration (MLC), B” value [3] was 0.5 µg/mL. The “Minimum Lethal Concentration (MLC), H” value [4] was 2 µg/mL, the “Minimum Lethal Concentration (MLC), F” value [5] was 2 µg/mL and the “Minimum Lethal Concentration (MLC), C” value [6] was 1 µg/mL. The “Minimum Lethal Concentration (MLC), E” value [7] was 2 µg/mL and the “Minimum Lethal Concentration (MLC), D” value [8] was 1 µg/mL.
